Results as given in ChEMBL document CHEMBL1201862, “PubChem BioAssay data set” (2004).
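Five concentrations, 48 hours, 96-well plates. The concentration for 50% growth inhibition is given as GI50.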 The source made the active and inactive calls. Rule as the data show it: active = GI50 up to about 1.1 µM and inactive = higher.

Key:
Experiment in all cases: NCI anticancer screen, dose series, 48 h
A549 = system: A549
ACHN = system: ACHN
HL-60 = system: HL-60
K562 = system: K562
MOLT-4 = system: MOLT-4
Malme-3M = system: Malme-3M
NCI-H522 = system: NCI-H522
OVCAR-4 = system: OVCAR-4
OVCAR-5 = system: OVCAR-5
OVCAR-8 = system: OVCAR-8
RPMI-8226 = system: RPMI-8226
SF-268 = system: SF-268
SK-MEL-28 = system: SK-MEL-28
SK-MEL-2 = system: SK-MEL-2
SN12C = system: SN12C
TK-10 = system: TK-10
Hs-578T = system: Hs-578T
MDA-MB-231 = system: MDA-MB-231
PC-3 = system: PC-3

SMILES | GI50 (A549) | GI50 (ACHN) | GI50 (HL-60) | GI50 (K562) | GI50 (MOLT-4) | GI50 (Malme-3M) | GI50 (NCI-H522) | GI50 (OVCAR-4) | GI50 (OVCAR-5) | GI50 (OVCAR-8) | GI50 (RPMI-8226) | GI50 (SF-268) | GI50 (SK-MEL-28) | GI50 (SK-MEL-2) | GI50 (SN12C) | GI50 (TK-10) | GI50 (Hs-578T) | GI50 (MDA-MB-231) | GI50 (PC-3)
C=C1C(=O)OC2CCCCC3OC3C12 (configuration not stated) | 20.9 µM (inactive) | 11 µM (inactive) | 2.79 µM (inactive) | 12.3 µM (inactive) | 13.1 µM (inactive) | 10.7 µM (inactive) | 1.87 µM (inactive) | 14.2 µM (inactive) | 18.2 µM (inactive) | 15.9 µM (inactive) | 5.55 µM (inactive) | 13.8 µM (inactive) | 10.9 µM (inactive) | 12 µM (inactive) | 7.62 µM (inactive) | 13.8 µM (inactive) |  |  | 
O=C(Nc1ccc(Cl)cc1)c1cc([N+](=O)[O-])ccc1O | 4.62 µM (inactive) | 3.2 µM (inactive) | 2.19 µM (inactive) | 2.67 µM (inactive) | 2.58 µM (inactive) | 2.13 µM (inactive) | 2.09 µM (inactive) | 4.52 µM (inactive) | 4.53 µM (inactive) | 4.33 µM (inactive) | 2.33 µM (inactive) | 4.97 µM (inactive) | 3.33 µM (inactive) | 2.61 µM (inactive) | 4.07 µM (inactive) | 5.58 µM (inactive) |  |  | 
COc1cccc(/C=N\NC(=O)C(C)SC(C)C(=O)N/N=C/c2cccc(OC)c2)c1 (configuration not stated) | 14.6 µM (inactive) | 18.9 µM (inactive) | > 62.1 µM (inactive) | > 78.3 µM (inactive) | 39.4 µM (inactive) | 42 µM (inactive) | 22.3 µM (inactive) | 16.8 µM (inactive) | 53.8 µM (inactive) | 28.4 µM (inactive) | 32.7 µM (inactive) | 33.4 µM (inactive) | 36.6 µM (inactive) | 39.2 µM (inactive) | 19.6 µM (inactive) | 19.1 µM (inactive) |  |  | 
COc1ccc(-c2oc(/C=N/NC(N)=S)c([N+](=O)[O-])c2-c2ccc(OC)c(OC)c2)cc1OC | 35.6 µM (inactive) | 18.5 µM (inactive) | 21.7 µM (inactive) | > 10 µM (inactive) |  | 17.3 µM (inactive) | 23.6 µM (inactive) | 21.7 µM (inactive) | 48.3 µM (inactive) | 23.9 µM (inactive) | 17 µM (inactive) | 16.6 µM (inactive) | 23.9 µM (inactive) | 15.3 µM (inactive) | 36 µM (inactive) | 34 µM (inactive) |  |  | 
O=S1(=O)[C@H](c2ccccc2)c2c(-c3ccccc3)sc(-c3ccccc3)c2[C@@H]1c1ccccc1 | > 100 µM (inactive) | > 100 µM (inactive) | > 100 µM (inactive) | > 100 µM (inactive) | > 100 µM (inactive) | 94.2 µM (inactive) | 13 µM (inactive) | 48.1 µM (inactive) | 3.81 µM (inactive) | > 100 µM (inactive) | > 100 µM (inactive) | > 100 µM (inactive) | > 100 µM (inactive) | > 100 µM (inactive) | > 100 µM (inactive) | > 100 µM (inactive) |  |  | 
COc1cc(C(=O)C/C(CCCC(=O)Nc2ccccc2[N+](=O)[O-])=N/NC(=O)c2cc3ccccc3cc2O)ccc1O | 54.5 µM (inactive) | 28.9 µM (inactive) | 0.556 µM (active) | 20.2 µM (inactive) | 26.1 µM (inactive) | 29.2 µM (inactive) | 36.6 µM (inactive) | 38.3 µM (inactive) | 46.3 µM (inactive) | 26.8 µM (inactive) | > 46.9 µM (inactive) | 23.8 µM (inactive) | 58.2 µM (inactive) | > 42.7 µM (inactive) | 44 µM (inactive) | 52.5 µM (inactive) |  |  | 
O=C1NC2(CCCCC2)C2CCCCC=C12 (configuration not stated) | > 100 µM (inactive) | > 100 µM (inactive) | > 100 µM (inactive) | > 100 µM (inactive) | > 100 µM (inactive) | > 100 µM (inactive) | > 100 µM (inactive) | > 100 µM (inactive) | > 100 µM (inactive) | > 100 µM (inactive) | > 100 µM (inactive) | > 100 µM (inactive) | > 100 µM (inactive) | > 100 µM (inactive) | > 100 µM (inactive) | > 100 µM (inactive) |  |  | 
CNC(=O)OCc1cc2ccncc2c2c1[nH]c1ccccc12 | > 27.4 µM (inactive) | 5.47 µM (inactive) | 19.1 µM (inactive) | 17.9 µM (inactive) | 4.05 µM (inactive) | > 100 µM (inactive) | 20.7 µM (inactive) | > 100 µM (inactive) | > 77.6 µM (inactive) | 11.5 µM (inactive) | > 88.3 µM (inactive) |  | > 100 µM (inactive) | > 100 µM (inactive) | > 100 µM (inactive) | > 100 µM (inactive) |  |  | 
O=C(Nc1ccccc1)c1cc2ccccc2c(/N=N/c2ccc([N+](=O)[O-])cc2)c1O | > 100 µM (inactive) | > 100 µM (inactive) | 1.14 µM (inactive) | 35.6 µM (inactive) | 17 µM (inactive) | > 100 µM (inactive) | > 100 µM (inactive) | > 100 µM (inactive) | > 100 µM (inactive) | > 100 µM (inactive) | 25.5 µM (inactive) | > 100 µM (inactive) | > 100 µM (inactive) | 32.8 µM (inactive) | > 100 µM (inactive) | 56.1 µM (inactive) | 55.1 µM (inactive) | 71.9 µM (inactive) | > 100 µM (inactive)
Cc1cc(N(CCC#N)CCC#N)ccc1/C=C(\N=[N+]=[N-])C(=O)NC(=O)COc1ccccc1 | > 100 µM (inactive) | > 100 µM (inactive) | > 100 µM (inactive) | > 100 µM (inactive) | > 100 µM (inactive) | > 100 µM (inactive) | > 100 µM (inactive) | > 100 µM (inactive) | > 100 µM (inactive) | > 81.1 µM (inactive) | > 100 µM (inactive) | > 100 µM (inactive) | > 100 µM (inactive) | > 73.3 µM (inactive) | > 100 µM (inactive) | > 100 µM (inactive) |  |  | 
O=C(CSC(=S)N1CCCCC1)Nc1nc2c(s1)CCCC2 | 43.6 µM (inactive) | 50 µM (inactive) | 12.1 µM (inactive) |  | 11 µM (inactive) | > 100 µM (inactive) | 29.5 µM (inactive) | 91.8 µM (inactive) | > 100 µM (inactive) | 58.1 µM (inactive) | 33.5 µM (inactive) | 20.7 µM (inactive) | 64.7 µM (inactive) | > 100 µM (inactive) | 31.3 µM (inactive) | 16.4 µM (inactive) |  |  | 
Cc1cc2c(c(/C=N/Cc3ccccc3)c1)OC1(C=C2)Oc2ccccc2C(=O)N1C (configuration not stated) | 29.5 µM (inactive) | 20.7 µM (inactive) | 21 µM (inactive) | 14.1 µM (inactive) | 4.5 µM (inactive) |  |  | 29.2 µM (inactive) | 21.4 µM (inactive) | 16.5 µM (inactive) | 12.1 µM (inactive) | 21.8 µM (inactive) | 29.8 µM (inactive) | 24.9 µM (inactive) | 27.7 µM (inactive) | 26 µM (inactive) | 18.3 µM (inactive) | 27.5 µM (inactive) | 24.7 µM (inactive)
O=Cc1c(O)c(C(=O)Nc2ccc3[nH]c(=O)[nH]c3c2)cc2ccccc12 | > 100 µM (inactive) | > 100 µM (inactive) | > 100 µM (inactive) | > 100 µM (inactive) | > 100 µM (inactive) | > 100 µM (inactive) | > 100 µM (inactive) | > 100 µM (inactive) | > 100 µM (inactive) | > 100 µM (inactive) | > 100 µM (inactive) | > 100 µM (inactive) | > 100 µM (inactive) | > 100 µM (inactive) | > 100 µM (inactive) | > 100 µM (inactive) |  |  | 
COc1ccc(C(=O)C(CO)Oc2ccccc2OC)cc1OC (configuration not stated) | > 100 µM (inactive) | > 100 µM (inactive) | > 100 µM (inactive) | > 100 µM (inactive) | > 100 µM (inactive) | > 100 µM (inactive) | 91 µM (inactive) | > 100 µM (inactive) | > 100 µM (inactive) | > 100 µM (inactive) | > 100 µM (inactive) | > 100 µM (inactive) | > 100 µM (inactive) | > 100 µM (inactive) | > 100 µM (inactive) | > 100 µM (inactive) |  |  | 
CN(Cc1cc(Cl)cc(Cl)c1)CC(C(=O)c1ccccc1)c1ccccc1 (configuration not stated) | 23.3 µM (inactive) | 0.445 µM (active) | 1.65 µM (inactive) | 0.962 µM (active) | 0.684 µM (active) | 8 µM (inactive) | 1.54 µM (inactive) | 2.07 µM (inactive) | 6.21 µM (inactive) | 4.2 µM (inactive) | 0.1 µM (active) | 13.7 µM (inactive) | 2.9 µM (inactive) | 10.2 µM (inactive) | 4.67 µM (inactive) | 6.37 µM (inactive) | 3.15 µM (inactive) | 6.81 µM (inactive) | 4.91 µM (inactive)
COc1cc(OC(C)=O)cc2c(OC(C)=O)ccc(OC(C)=O)c12 | > 100 µM (inactive) | > 100 µM (inactive) | 43.6 µM (inactive) | > 100 µM (inactive) | > 100 µM (inactive) |  | > 100 µM (inactive) | 73.6 µM (inactive) | > 100 µM (inactive) | > 100 µM (inactive) | > 100 µM (inactive) | > 100 µM (inactive) | > 100 µM (inactive) | > 100 µM (inactive) | > 100 µM (inactive) | > 100 µM (inactive) |  |  | 
c1ccc(/N=C(\N2CCCC2)N(CCN2CCCC2)c2ccccc2)cc1 | 56.6 µM (inactive) | 40 µM (inactive) | 2.91 µM (inactive) | 3.8 µM (inactive) | 3.98 µM (inactive) | > 100 µM (inactive) | 11.3 µM (inactive) | 32.1 µM (inactive) | 29.6 µM (inactive) | 24.4 µM (inactive) | 47.8 µM (inactive) | > 10 µM (inactive) | > 100 µM (inactive) | 64.9 µM (inactive) | 29.8 µM (inactive) | 30.8 µM (inactive) | 18.9 µM (inactive) |  | 5.5 µM (inactive)
